# Measured values from patent US20220117879A1, “PHOTO-PROTECTIVE PLANT-DERIVED COMPOSITION” (Ariel Scientific Innovations Ltd., priority 2019, published 2022).
# How the values were obtained:
# [1] = Photostability of SH-401 films on PMMA slides exposed to UV radiation, SPF versus time; format: physicochemical; settings: film on PMMA slide, 12 hours of exposure to UV radiation (FIG. 7)
# Experimental: In order to evaluate photostability, uniform films of pure SH-401 were prepared on PMMA (polymethyl methacrylate) slides by depositing 2 ml of […] solution on the slides and evaporating the solvent. The samples were then exposed to UV radiation for various time intervals, ranging up to 25 hours. The glass plates were then immersed in a mixture of ethanol/water (2:98% v/v) and the films were dissolved ultrasonically. The UV samples were then quantified by UV-visible absorption spectroscopy and the SPF value was determined according to procedures described hereinabove and plotted as a function of time.
# human skin explants [2] = assay: DNA fragmentation in epidermis cells of skin explants, COMET assay; format: cell-based; settings: UVB 350 mJ/cm^2, 2 μg/cm^2 (FIG. 12)
# Text: (§1) Skins were obtained with permission from 30-60 year-old healthy women undergoing aesthetic abdomen surgery, after signing an informed consent. A mechanical skin press was used to section the skin to 0.8×0.8 cm^2 pieces, according to procedures described in Portugal-Cohen et al. [Exp Dermatol 2011, 20:749-755]. The skin explants were maintained in an air/liquid interface, dermal side submerged in the medium, according to procedures described in Portugal-Cohen et al. [Exp Dermatol 2011, 20:749-755] and Cohen et al. [Dead Sea and Arava Studies 2015, 7:66-74]. The human skin explants were laid in 6-well culture plates containing DMEM (Dulbecco's modified Eagle medium) supplemented with 100 units/ml penicillin and 100 μg/ml streptomycin), dermal side down in the medium and epidermis up. All samples were used after an overnight recovery.
# human skin explants [3] = assay: UVB-induced ROS generation in skin explants, DCFDA assay; format: cell-based; settings: 0.02-2 μg/cm^2, with UVB (FIG. 9)
# Text: as §1
# (§2) A common feature of UVB-induced damage is the generation of ROS (reactive oxygen species), which increases DNA damage, amplifies the generation of lipid peroxidation and hampers proteins and membranes within the cells [Schuch et al., Free Rad Biol Med 2017, 107:110-124]. […] ROS generation upon UVB radiation was evaluated in skin explants both by DCFDA (dichlorofluorescin diacetate) assay, as well as by measuring lipid peroxidation (by ELISA), which is associated with ROS generation.
# human skin explants [4] = assay: UVB-induced apoptosis in epidermis of human skin explants, caspase-3 activation assay; format: cell-based; settings: 24 hours after UVB 350 mJ/cm^2; 0.02-2 μg/cm^2; comparable to Ultrasol SPF 30 formulation (FIG. 8B)
# Text: as §1
# pro-collagen = assay: Pro-collagen level in UVB-irradiated skin explants, ELISA; format: cell-based, human; settings: following UVB radiation (FIG. 15A)
# Text: as §1
# human skin explants [5] = assay: UVB-induced lipid peroxidation (MDA) in skin explants, ELISA; format: cell-based; settings: 0.02-2 μg/cm^2, with UVB (FIG. 10)
# Text: as §1, §2
# HaCaT cells = assay: Wound closure in confluent HaCaT cell in vitro model; format: cell-based; settings: confluent HaCaT cells with induced wound, 24 hours (FIG. 16)
# Experimental: The effect of SH-401 on wound healing in skin was assessed using a confluent HaCaT cell in vitro model of wound closure.
# human skin explants [6] = assay: Histological examination of UVB-irradiated skin explants; format: cell-based; settings: UVB 350 mJ/cm^2 (FIGS. 14A-14D)
# Text: as §1
# TNFα = assay: UVB-induced TNFα hypersecretion in human skin explants, ELISA; format: cell-based; settings: 24 hours after UVB 350 mJ/cm^2; 0.02-2 μg/cm^2; comparable to Ultrasol SPF 30 formulation (FIG. 8C)
# Text: as §1
# human skin explants [7] = assay: Epidermal cell viability in human skin explants, MTT assay; format: cell-based; settings: topical application, entire concentration range tested (up to maximal solubility) (FIG. 8A)
# Text: as §1
# In order to investigate the safety and efficacy of the active compound SH-401 (isolated as described in Example 2), several experiments were performed on human skin explants, according to procedures described in the Materials and Methods section hereinabove.
# human skin explants [8] = assay: Cyclobutane pyrimidine dimers (CPD) in epidermis cells from skin explants, ELISA; format: cell-based; settings: UVB 350 mJ/cm^2, 0.01-2 μg/cm^2 (FIG. 13)
# Text: as §1
# [9] = Antioxidant capacity by DPPH colour shift, Trolox equivalents; settings: 1 weight percent solution (FIG. 11)
# Text: Antioxidant capacity was further evaluated using the DPPH (diphenylpicrylhydrazyl) method. The color shift of DPPH in the presence of SH-401 and converted to units of Trolox (6-hydroxy-2,5,7,8-tetramethylchroman-2-carboxylic acid) equivalent antioxidant capacity based on a calibration curve.
# [10] = test system: matrix metalloproteinase-1 (MMP1); assay: MMP1 in UVB-irradiated skin explants, ELISA; format: cell-based, human; settings: following UVB radiation (FIG. 15B)
# Text: as §1
# [11] = SPF (sun protection factor) calculated from UV absorption spectra with the Mansur equation; format: physicochemical; settings: 0.01 mg/ml
# Experimental: Absorption spectra were used to calculate SPF (sun protection factor) values using the Mansur equation, according to procedures described by Dutra et al. [Braz J Pharma Sci 2004, 40:381-385], using OptLabTM X software ([…] order to investigate UVB blocking properties of various plants, a large-scale screening of traditionally-used herbs which grow in the Judean Desert was performed. The leaves, twigs, branches, fruits, and roots of each tested plant were collected, dried, ground and extracted separately in ethanol, water, chloroform or propylene glycol methyl ether acetate (PMA) using a Soxhlet system.
substance,measurement,setting,value
"1,2,3,4,6-pentagalloyl-β-D-glucose [SH-401]",stability towards UV radiation (change in SPF value),[1],essentially no change in SPF value
same,UVB-induced DNA damage (COMET),human skin explants [2],attenuated
same,UVB-induced ROS generation (DCFDA),human skin explants [3],attenuated
same,UVB-induced apoptosis in the epidermis (caspase-3 activation),human skin explants [4],attenuated
same,collagen synthesis (pro-collagen),pro-collagen,enhanced
same,UVB-induced lipid peroxidation (MDA),human skin explants [5],attenuated
same,wound closure,HaCaT cells,enhanced wound closure
same,UVB-induced pyknotic sunburn cells and reduction of the epidermal layer (histology),human skin explants [6],reversed this deleterious effect of the radiation
same,UVB-induced TNFα hypersecretion,TNFα,attenuated
same,skin viability (MTT),human skin explants [7],did not compromise skin viability
same,UVB-induced formation of cyclobutane pyrimidine dimers (CPD),human skin explants [8],reduced
same,Trolox equivalent antioxidant capacity (DPPH),[9],"approximately 2,310 micromole Trolox equivalent (TE) units per 100 grams"
same,MMP1 activity,[10],reduced
same,increase of SPF value relative to the crude extract,[11],more than 10 fold
